According to patent US6689803B2, “Compositions and methods for treating surgical adhesions” (Angiotech Pharmaceuticals, Inc., priority 1996, dated 2004):
Marks after values point to notes of the source that are not given here.

Assays:
[1] = tested on: MDAY-D2 tumors on the CAM; assay: Tumor angiogenesis: MDAY-D2 tumors on the CAM; format: in vivo, chick; details: 20% paclitaxel-loaded thermopaste
Method: Fertilized domestic chick embryos are incubated for 4 days prior to having their shells removed. The egg contents are emptied by removing the shell located around the airspace, severing the interior shell membrane, perforating the opposite end of the shell and allowing the egg contents to gently slide out from the blunted end. The contents are emptied into round-bottom sterilized glass bowls, covered with petri dish covers and incubated at 90% relative humidity and 3% carbon dioxide.
MDAY-D2 cells (a murine lymphoid tumor) are injected into mice and allowed to grow into tumors weighing 0.5-1.0 g. The mice are sacrificed, the tumor sites wiped with alcohol, excised, placed in sterile tissue culture media, and diced into 1 mm pieces under a laminar flow hood. Prior to placing the dissected tumors onto the […] chick embryos, CAM surfaces are gently scraped with a 30 gauge needle to ensure tumor implantation. The tumors are then placed on the CAMs after 8 days of incubation (4 days after deshelling), and allowed to grow on the CAM for four days to establish a vascular supply. Four embryos are prepared utilizing this method, each embryo receiving 3 tumors. On day 12, each of the 3 tumors on the embyros received either 20% paclitaxel-loaded thermopaste, unloaded thermopaste, or no treatment. The treatments were continued for two days before the results were recorded.
The explanted MDAY-D2 tumors secrete angiogenic factors which induce the ingrowth of capillaries (derived from the CAM) into the tumor mass and allow it to continue to grow in size. Since all the vessels of the tumor are derived from the CAM, while all the tumor cells are derived from the explant, it is possible to assess the effect of therapeutic interventions on these two processes independently. This assay has been used to determine the effectiveness of paclitaxel-loaded thermopaste on: (a) inhibiting the vascularization of the tumor and (b) inhibiting the growth of the tumor cells themselves.

human keratinocytes = assay: Keratinocyte viable cell number (trypan blue exclusion); format: cell-based; details: 4 days
Method: Following incubation, cells were collected and counted by the trypan blue exclusion assay.

[2] = tested on: collagen-induced arthritis
Method: Syngeneic female Louvain rats weighing 120 to 150 grams were injected intradermally with 0.5 mg of native chick collagen II (Genzyme, Boston, Mass.) solubilized in 0.1 M acetic acid and emulsified in FIA (Difco, Detroit, Mich.). […] The control and experimental animals were evaluated for disease severity both clinically and radiographically by individuals blinded to treatment groups.
The severity of inflammation for each limb was evaluated daily and scored based on standardized levels of swelling and periarticular erythema (0 being normal and 4 severe). Animals were evaluated radiographically on day 28 of the experiment. The radiographs of both hind limbs were graded by the degree of soft tissue swelling, joint space narrowing, bone destruction, and periosteal new bone formation. A scale of 0-3 was used to quantify each limb (0=normal, 1=soft tissue swelling, 2=early erosions of bone, 3=severe bone destruction and/or ankylosis). Histological assessment of the joints was completed at the conclusion of the experiment.
Delayed-type hypersensitivity (DTH) to CII was determined by a radiometric ear assay completed on day 28. Radiometric ear indices≧1.4 represent a significant response to CII. The presence of anti-CII IgG antibodies was determined by enzyme-linked immunosorbent assay (ELISA).

adhesion formation = assay: Rabbit uterine horn model of surgical adhesions; format: in vivo
Method: New Zealand female white rabbits were anesthetized and a midline incision made through the skin and the abdominal wall. Both uterine horns were located and exteriorized. Using a French Catheter Scale, the diameter of each uterine horn was measured and recorded. Only those rabbits with uterine horns measuring size 8 to 16, inclusive, on the French scale were used. Using a number 10 scalpel blade, 5 cm lengths of each uterine horn, approximately 1 cm from the uterine bifurcation, were scraped, 40 times per side, until punctuate bleeding. Hemostasis was achieved by tamponade.
Test agent (0.4 to 2.5 ml) was applied over the horns via an 18 gauge needle. Uterine horns were replaced into the pelvis and the abdominal incision closed.
Body weights of the animals were recorded. The abdomen was opened and the surgical site inspected. Adhesions were graded by a blinded observer as follows:
The total length (cm) of each uterine horn involved with adhesions was estimated and recorded.
Adhesions were grades as 0 (absent), 1.0 (filmy adhesions) and 2.0 (tenacious, requiring sharp dissection).
The degree of uterine convolution was recorded according to the following scale:
No convolution: Straight lengths of adherent or non-adherent horns which are clearly discerned.
Completely convoluted: It is impossible to discern uterine anatomy because the horn is completely entangled.

synoviocytes [3] = assay: 3H-thymidine incorporation into synoviocytes; format: cell-based; details: 6 or 24 hours
Method: At these times, 1×10^−6 cpm of ^3H-thymidine was added to the cell culture and incubated for 2 hours at 37° C. The cells were placed through a cell harvester, washed through a filter, the filters were cut, and the amount of radiation contained in the filter sections determined. Once the amount of thymidine incorporated into the cells was ascertained, it was used to determine the rate of cell proliferation. This experiment was repeated three times and the data collated.

[4] = In vitro release of paclitaxel from polymeric formulations; format: physicochemical; details: for paclitaxel released: 10 days in PBS
Method: The tube was incubated at 37° C. with gentle rotational mixing. […] The supernatant (10 ml) was extracted with 1 ml methylene chloride. […] The injection volume was 20 μl and the flow rate was 1 ml/minute.
An equal volume of PBS was replaced in each tube to maintain sink conditions throughout the study.
Sampling daily (three sampling at the first day) to maintain the sink condition.

synoviocytes [5] = assay: Proliferation assay (MTT); format: cell-based; details: 24-hour exposure
Method: On day one, 5-10×10^4 synoviocytes were plated per well (96-well plate). Column #1 was kept free of cells (blank). On day 2, the plate was flicked to discard the medium and 200 μl of medium containing various concentrations of drug was added. […] There was no drug added to columns #1 and #2 (blank and untreated control, respectively). The medium containing the drug was discarded and 200 μl of fresh complete medium was added. The cells were then left to grow for an additional 3 to 4 days. On day five, 20 μl of dimethylthiazol diphenyltetrazolium bromide salt (MTT) (5 mg/ml PBS) was added and allowed to incubate for 4 hours at 37° C. The medium was decanted and 200 μl of DMSO was added.
The data were expressed as the % of survival which was obtained by dividing the number of cells remaining after treatment by the number of cells in the untreated control column #2 (the number of cells was obtained from a standard done prior to the assay).

[6] = tested on: AP-1 DNA binding activity; assay: IL-1 induced AP-1 DNA binding (gel mobility shift); format: cell-based; details: 10^−7 to 10^−5 M, pretreated 24 hours
Method: Binding activity was assayed with a radiolabeled human AP-1 sequence probe and gel mobility shift assay. […] The “com” lane contains excess unlabeled AP-1 oligonucleotide. The results shown are representative of tree independent experiments.

## CC(=O)O[C@H]1C(=O)[C@@]2(C)[C@H]([C@H](OC(=O)c3ccccc3)[C@]3(O)C[C@H](OC(=O)[C@H](O)[C@@H](NC(=O)c4ccccc4)c4ccccc4)C(C)=C1C3(C)C)[C@]1(OC(C)=O)CO[C@@H]1C[C@@H]2O [paclitaxel]
[1]; two days
  blood vessels in the immediate periphery of the tumor: 14
  small capillaries in the tumor mass: 3-4
[1]; all 4 embryos
  tumor vascularity: suppressing tumor vascularity
Human keratinocytes; 10^−7 M or higher
  cell viability: significant drop in cell viability
Human keratinocytes; 10^−8 M
  cell viability: 87 % of untreated controls
Human keratinocytes; 10^−9 M
  cell viability: greater than 100 % of untreated controls
[2]; high- and low-dose suppression groups vs control
  radiographic disease: significantly less radiographic disease
[2]; low- and high-dose suppression protocols, i.p. from day 9
  clinical symptoms: significant clinical improvement
[2]; paclitaxel-treated rats vs control group
  IgG antibodies to type II collagen (ELISA): significantly lower
[2]; prevention protocol
  radiographic changes / clinical arthritis: None of the rats in the paclitaxel arthritis prevention protocol manifested any radiographic changes or clinical arthritis
[2]; prevention protocol: 1 mg/kg i.p. from day 2
  development of arthritis: completely precluded development of the disease
[2]; rat, in vivo
  toxic effects of the treatment: few, if any toxic effects
Adhesion formation; 0.1% in vehicle
  Adhesion-Free: number of uterine horns free of adhesions/total: 0/20
  Convolution: number of uterine horns with no convolution/partial convolution/full convolution: 16/2/2†
  Extent: length of uterine horn with adhesions (± Standard Error of the Mean): 2.925 (0.338)* cm
Adhesion formation; 0.1% in vehicle, listed as Paclitaxel
  Extent: length of uterine horn with adhesions (± Standard Error of the Mean): 2.925±0.338 cm
Adhesion formation; 1% in vehicle
  Adhesion-Free: number of uterine horns free of adhesions/total: 0/18
  Convolution: number of uterine horns with no convolution/partial convolution/full convolution: 18/0/0‡
  Extent: length of uterine horn with adhesions (± Standard Error of the Mean): 2.028±0.374 cm
Adhesion formation; 1% in vehicle, listed as paclltaxel
  Extent: length of uterine horn with adhesions (± Standard Error of the Mean): 2.028 (0.374)** cm
Synoviocytes [3]
  inhibits incorporation of 3H-thymidine at concentrations as low as: 10^−8 M
[4]; 5 mg of 30% loaded PLLA microspheres
  paclitaxel released: 400 µg
[4]; 5% paclitaxel loaded PCL microspheres, after 21 days, PBS 37° C.
  released fraction of total drug content: about 20%
[4]; 10% loaded PLLA microspheres
  paclitaxel released: 150 µg
[4]; 20% paclitaxel loaded 0:100 PDLLA:PCL (PCL) paste, within 10 days
  released paclitaxel: 6%
[4]; 20% paclitaxel loaded 70:30 PDLLA:PCL paste, within 10 days
  released paclitaxel: 11%
[4]; 20% paclitaxel loaded 80:20 PDLLA:PCL paste, within 10 days
  released paclitaxel: 17%
[4]; 20% paclitaxel loaded 90:10 PDLLA:PCL paste, within 10 hours
  released paclitaxel: 25-35%
[4]; 20% paclitaxel loaded PDLLA-PEG-PDLLA cylinder, 20% PEG, 1 mm, 30 days
  released paclitaxel: 2%
[4]; 20% paclitaxel loaded PDLLA-PEG-PDLLA cylinder, 30% PEG, 0.65 mm, 30 days
  released paclitaxel: 26%
[4]; 20% paclitaxel loaded PDLLA-PEG-PDLLA cylinder, 30% PEG, 1 mm, 30 days, PBS albumin 37° C.
  released paclitaxel: 17%
[4]; paclitaxel-nylon microcapsules, after 72 hours
  drug released: more than 95%
Synoviocytes [5]
  IC50: ~30 nM
[6]
  IL-1 induced AP-1 binding activity: decreased
